The text below walks through data of US10457707B2, “Substituted urea depsipeptide analogs as activators of the CLPP endopeptidase” (priority 2015, dated 2019).

What all share (format): cell-based
The nature of data set [1]: Cytotoxicity assay (CellTiter-Glo cell viability, 72 hours). Particulars: African green monkey. In outline: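 Viability measured by CellTiter-Glo luminescence after 72-hour compound exposure (serial dilutions, DMSO control) of Vero monolayers seeded at 5000 cells/well in 10% FBS DMEM. IC50 values are the range of two biologically independent experiments, each run in duplicate.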

Data set [2] deals with Streptococcus pyogenes, ATCC 700294. The data set can be described thus: Minimal inhibitory concentration assay (microbroth dilution). The essentials:
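Plates with two-fold compound dilution series in broth were incubated overnight, aerobically, at 37° C, following CLSI microdilution guidance.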

For data set [3], the system named is Bacillus subtilis, ATCC 23857. Described as above. In outline: (§1)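 Visual read-out; MIC is the lowest drug concentration with no bacterial growth after overnight aerobic incubation at 37 °C. Compound was tested in two-fold dilutions starting at 200 μM final, with an inoculum of approximately 10^5 cfu/mL, following CLSI microdilution guidance.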
The subject of data set [4] is Staphylococcus aureus, ATCC 29213. The data set is described as above. Particulars: ATCC29213, read-out: Minimal Inhibitory Concentrations S. aureus ATCC 29213. The essentials: as §1
Data set [5] concerns Staphylococcus aureus, NRS70. Described as above. In outline:
as §1

The mark [6] stands for this setting: Streptococcus pyogenes, ATCC700294; read-out: Minimal Inhibitory Concentrations S. pyogenes ATCC 700294.
Where [7] appears, read: Bacillus subtilis, ATCC23857; read-out: Minimal Inhibitory Concentrations B. subtilis ATCC 23857.
Setting [8] is: Staphylococcus aureus, NRS70; read-out: Minimal Inhibitory Concentrations S. aureus NRS70.
[9] abbreviates: Vero cells, 72 hours, growth inhibition, read-out: Cytotoxicity IC50.
Setting [10] is: Streptococcus pyogenes, ATCC700294, read-out: Minimal Inhibitory Concentrations S. pyogenes ATCC 700294.
The mark [11] stands for this setting: Bacillus subtilis, ATCC23857, read-out: Minimal Inhibitory Concentrations B. subtilis ATCC 23857.
The mark [12] stands for this setting: Staphylococcus aureus, NRS70, read-out: Minimal Inhibitory Concentrations S. aureus NRS70.

Values after ≈ are worked out from the molar mass of the structure shown. Like-named read-outs stand apart in the source and are kept apart here. *1 amine or outer side, *2 acyl side, *3 side chain or, on linkers, in order; H or OH if unused. Where a SMILES comes first, the peptide text is derived from it. Bridges are numbered along the chain shown (N, C = ends). [ ]: non-standard residue; d: D form. The star is where a group is joined. ξ: configuration not given here. Phe(3,5-F2) = N[C@@H](Cc1cc(F)cc(F)c1)C(=O)O; NH(1-Me-indolin-5-yl) = CN1CCc2cc(N*)ccc21; Morpholine(3S-CO) = O=C(O)[C@@H]1COCCN1; NH(4-Cl-2-F-phenyl) = Fc1cc(Cl)ccc1N*; Pro(4R-Me) = C[C@H]1CN[C@H](C(=O)O)C1; Hyp = O=C(O)[C@@H]1C[C@@H](O)CN1; Heptenoyl(2E) = CCCC/C=C/C(=O)*; NH(4-Me-phenyl) = Cc1ccc(N*)cc1; ξNMeThr = CNC(C(=O)O)[C@@H](C)O; aThr = C[C@H](O)[C@H](N)C(=O)O; Pip = O=C(O)[C@@H]1CCCCN1; CO = O=C([*:1])[*:2] A value given as a limit tells only on which side of the number the result lay.

Consider `CCCC/C=C/C(=O)N[C@@H](Cc1cc(F)cc(F)c1)C(=O)N[C@@H]1C(=O)N2C[C@H](O)C[C@H]2C(=O)N2CCOC[C@H]2C(=O)N[C@@H](C)C(=O)N2C[C@H](C)C[C@H]2C(=O)O[C@H]1C` [Compound 309, (E)-N—((S)-3-(3,5-difluorophenyl)-1-(((6aS,8R,12S,13S,15aS,17R,21S,23aS)-8-hydroxy-13,17,21-trimethyl-6,11,15,20,23-pentaoxooctadecahydro-6H,11H,15H-[1,4]oxazino[3,4-i]dipyrrolo[2,1-c:2′,1′-l][1]oxa[4,7,10,13]tetraazacyclohexadecin-12-yl)amino)-1-oxopropan-2-yl)hept-2-enamide] ({Heptenoyl(2E)}-[Phe(3,5-F2)][aThr][Hyp][Morpholine(3S-CO)]A[Pro(4R-Me)]; ester 2-C), for which, in data set [1], the IC50 at 72 h was greater than 100 µM. Also, the MIC in data set [2] (setting [6]) is less than 0.02 µM; in data set [3] (setting [7]), 0.156 µM (≈ 0.125 µg/mL); in data set [4], 0.156 µM (≈ 0.125 µg/mL); in data set [5] (setting [8]), 0.156 µM (≈ 0.125 µg/mL).
Consider `C[C@@H]1C[C@H]2C(=O)O[C@@H](C)[C@H](NC(=O)[C@H](Cc3cc(F)cc(F)c3)NC(=O)Nc3ccc4c(c3)CCN4C)C(=O)N3CCC[C@H]3C(=O)N3CCCC[C@H]3C(=O)N[C@@H](C)C(=O)N2C1` [Compound 310, (S)-3-(3,5-difluorophenyl)-2-(3-(1-methylindolin-5-yl)ureido)-N-((2R,6S,8aS,14aS,20S,21S,23aS)-2,6,21-trimethyl-5,8,14,19,23-pentaoxooctadecahydro-1H,5H,14H,19H-pyrido[2,1-i]dipyrrolo[2,1-c:2′,1′-l][1]oxa[4,7,10,13]tetraazacyclo-hexadecin-20-yl)propanamide] ({NH(1-Me-indolin-5-yl)-CO}-[Phe(3,5-F2)][aThr]P[Pip]A[Pro(4R-Me)]; ester 2-C), for which the IC50 at 72 h in data set [1] (setting [9]) amounted to 0.4 ± 0.01 µM. The MIC in data set [2] (setting [10]) was 0.156 µM (≈ 0.132 µg/mL); in data set [3] (setting [11]), 0.078 µM (≈ 0.0662 µg/mL); in data set [4] it was 0.078 µM (≈ 0.0662 µg/mL); in data set [5] (setting [12]) it was 0.156 µM (≈ 0.132 µg/mL).
Regarding `C[C@@H]1C[C@H]2C(=O)O[C@@H](C)[C@H](NC(=O)[C@H](Cc3cc(F)cc(F)c3)NC(=O)Nc3ccc4c(c3)CCN4C)C(=O)N3CCC[C@H]3C(=O)N(C)C([C@@H](C)O)C(=O)N[C@@H](C)C(=O)N2C1` (stereo partly drawn) [Compound 311, (S)-3-(3,5-difluorophenyl)-N-((2R,6S,9R,11aS,17S,18S,20aS)-9-((R)-1-hydroxyethyl)-2,6,10,18-tetramethyl-5,8,11,16,20-pentaoxohexadecahydro-1H,5H,16H-dipyrrolo[2,1-c:2′,1′-l][1]oxa[4,7,10,13]tetraazacyclohexadecin-17-yl)-2-(3-(1-methylindolin-5-yl)ureido)propanamide] ({NH(1-Me-indolin-5-yl)-CO}-[Phe(3,5-F2)][aThr]P[ξNMeThr]A[Pro(4R-Me)]; ester 2-C), in data set [1] (setting [9]), the IC50 at 72 h worked out at 14.3 ± 0.3 µM. Further, the MIC in data set [2] (setting [10]) was 0.156 µM (≈ 0.133 µg/mL); in data set [3] (setting [11]) it was 0.313 µM (≈ 0.267 µg/mL); in data set [4] it was 0.156 µM (≈ 0.133 µg/mL); in data set [5] (setting [12]), 0.156 µM (≈ 0.133 µg/mL).
As for `C[C@@H]1C[C@H]2C(=O)O[C@@H](C)[C@H](NC(=O)[C@H](Cc3cc(F)cc(F)c3)NC(=O)Nc3ccc4c(c3)CCN4C)C(=O)N3CCC[C@H]3C(=O)N3CCOC[C@H]3C(=O)N[C@@H](C)C(=O)N2C1` [Compound 312, (S)-3-(3,5-difluorophenyl)-2-(3-(1-methylindolin-5-yl)ureido)-N-((6aS,12S,13S,15aS,17R,21S,23aS)-13,17,21-trimethyl-6,11,15,20,23-pentaoxooctadecahydro-6H,11H,15H-[1,4]oxazino[3,4-i]dipyrrolo[2,1-c:2′,1′-l][1]oxa[4,7,10,13]tetraazacyclo-hexadecin-12-yl)propanamide] ({NH(1-Me-indolin-5-yl)-CO}-[Phe(3,5-F2)][aThr]P[Morpholine(3S-CO)]A[Pro(4R-Me)]; ester 2-C), the IC50 at 72 h in data set [1] (setting [9]) was 2.87 µM. Also, the MIC in data set [2] (setting [10]) was 0.156 µM (≈ 0.133 µg/mL); in data set [3] (setting [11]), 0.313 µM (≈ 0.266 µg/mL); in data set [4] it was 0.156 µM (≈ 0.133 µg/mL); in data set [5] (setting [12]), 0.078 µM (≈ 0.0664 µg/mL).
In data set [1], `C[C@@H]1C[C@H]2C(=O)O[C@@H](C)[C@H](NC(=O)[C@H](Cc3cc(F)cc(F)c3)NC(=O)Nc3ccc(Cl)cc3F)C(=O)N3CCC[C@H]3C(=O)N(C)C([C@@H](C)O)C(=O)N[C@@H](C)C(=O)N2C1` (stereo partly drawn) [Compound 313, (S)-2-(3-(4-chloro-2-fluorophenyl)ureido)-3-(3,5-difluorophenyl)-N-((2R,6S,9R,11aS,17S,18S,20aS)-9-((R)-1-hydroxyethyl)-2,6,10,18-tetramethyl-5,8,11,16,20-pentaoxohexadecahydro-1H,5H,16H-dipyrrolo[2,1-c:2′,1′-l][1]oxa[4,7,10,13]tetraazacyclohexadecin-17-yl)propanamide] ({NH(4-Cl-2-F-phenyl)-CO}-[Phe(3,5-F2)][aThr]P[ξNMeThr]A[Pro(4R-Me)]; ester 2-C) displayed an IC50 at 72 h of 13.5 ± 3.9 µM. The MIC in data set [2] (setting [6]), in data set [3] (setting [7]), in data set [4] and in data set [5] (setting [8]) was less than 0.02 µM in each case.
`C[C@@H]1C[C@H]2C(=O)O[C@@H](C)[C@H](NC(=O)[C@H](Cc3cc(F)cc(F)c3)NC(=O)Nc3ccc(Cl)cc3F)C(=O)N3CCC[C@H]3C(=O)N3CCOC[C@H]3C(=O)N[C@@H](C)C(=O)N2C1` [Compound 314, (S)-2-(3-(4-chloro-2-fluorophenyl)ureido)-3-(3,5-difluorophenyl)-N-((6aS,12S,13S,15aS,17R,21S,23aS)-13,17,21-trimethyl-6,11,15,20,23-pentaoxooctadecahydro-6H,11H,15H-[1,4]oxazino[3,4-i]dipyrrolo[2,1-c:2′,1′-l][1]oxa[4,7,10,13]tetraazacyclo-hexadecin-12-yl)propanamide] ({NH(4-Cl-2-F-phenyl)-CO}-[Phe(3,5-F2)][aThr]P[Morpholine(3S-CO)]A[Pro(4R-Me)]; ester 2-C): the IC50 at 72 h in data set [1] was found to be 2.39 ± 0.8 µM. The MIC in data set [2] (setting [6]), in data set [3] (setting [7]), in data set [4] and in data set [5] (setting [8]) was less than 0.02 µM each time.
For `C[C@@H]1C[C@H]2C(=O)O[C@@H](C)[C@H](NC(=O)[C@H](Cc3cc(F)cc(F)c3)NC(=O)Nc3ccc4c(c3)CCN4C)C(=O)N3C[C@H](O)C[C@H]3C(=O)N3CCOC[C@H]3C(=O)N[C@@H](C)C(=O)N2C1` [Compound 315, (S)-3-(3,5-difluorophenyl)-N-((6aS,8R,12S,13S,15aS,17R,21S,23aS)-8-hydroxy-13,17,21-trimethyl-6,11,15,20,23-pentaoxooctadecahydro-6H,11H,15H-[1,4]oxazino[3,4-i]dipyrrolo[2,1-c:2′,1′-l][1]oxa[4,7,10,13]tetraazacyclohexadecin-12-yl)-2-(3-(1-methylindolin-5-yl)ureido)propanamide] ({NH(1-Me-indolin-5-yl)-CO}-[Phe(3,5-F2)][aThr][Hyp][Morpholine(3S-CO)]A[Pro(4R-Me)]; ester 2-C), the IC50 at 72 h in data set [1] (setting [9]) was greater than 100 µM. The MIC in data set [2] (setting [10]) was 0.625 µM (≈ 0.542 µg/mL); in data set [3] (setting [11]), 20 µM (≈ 17.3 µg/mL); in data set [4], 5 µM (≈ 4.33 µg/mL); in data set [5] (setting [12]), 5 µM (≈ 4.33 µg/mL).
As for `C[C@@H]1C[C@H]2C(=O)O[C@@H](C)[C@H](NC(=O)[C@H](Cc3cc(F)cc(F)c3)NC(=O)Nc3ccc(Cl)cc3F)C(=O)N3C[C@H](O)C[C@H]3C(=O)N3CCOC[C@H]3C(=O)N[C@@H](C)C(=O)N2C1` [Compound 316, (S)-2-(3-(4-chloro-2-fluorophenyl)ureido)-3-(3,5-difluorophenyl)-N-((6aS,8R,12S,13S,15aS,17R,21S,23aS)-8-hydroxy-13,17,21-trimethyl-6,11,15,20,23-pentaoxooctadecahydro-6H,11H,15H-[1,4]oxazino[3,4-i]dipyrrolo[2,1-c:2′,1′-l][1]oxa[4,7,10,13]tetraazacyclo-hexadecin-12-yl)propanamide] ({NH(4-Cl-2-F-phenyl)-CO}-[Phe(3,5-F2)][aThr][Hyp][Morpholine(3S-CO)]A[Pro(4R-Me)]; ester 2-C), the IC50 at 72 h in data set [1] was greater than 100 µM. In addition, the MIC is less than 0.02 µM in data set [2] (setting [6]), 0.313 µM (≈ 0.271 µg/mL) in data set [3] (setting [7]), 0.078 µM (≈ 0.0674 µg/mL) in data set [4] and 0.078 µM (≈ 0.0674 µg/mL) in data set [5] (setting [8]).
Turning to `Cc1ccc(NC(=O)N[C@@H](Cc2cc(F)cc(F)c2)C(=O)N[C@H]2COC(=O)[C@@H]3C[C@@H](C)CN3C(=O)[C@H](C)NC(=O)[C@@H]3COCCN3C(=O)[C@@H]3C[C@@H](O)CN3C2=O)cc1` [Compound 317, (S)-3-(3,5-difluorophenyl)-N-((6aS,8R,12S,15aS,17R,21S,23aS)-8-hydroxy-17,21-dimethyl-6,11,15,20,23-pentaoxooctadecahydro-6H,11H,15H-[1,4]oxazino[3,4-i]dipyrrolo[2,1-c:2′,1′-l][1]oxa[4,7,10,13]tetraazacyclohexadecin-12-yl)-2-(3-(p-tolyl)ureido)propanamide] ({NH(4-Me-phenyl)-CO}-[Phe(3,5-F2)]S[Hyp][Morpholine(3S-CO)]A[Pro(4R-Me)]; ester 2-C), the IC50 at 72 h in data set [1] (setting [9]) was greater than 100 µM. For the same molecule, the MIC was found to be 0.156 µM (≈ 0.127 µg/mL) in data set [2] (setting [10]), 10 µM (≈ 8.12 µg/mL) in data set [3] (setting [11]), 2.5 µM (≈ 2.03 µg/mL) in data set [4] and 2.5 µM (≈ 2.03 µg/mL) in data set [5] (setting [12]).
